Where two headings read alike, the source gives them in different places.
Experiments:
NIH 3T3 cells = test: Control of cellular division and proliferation induced by SPC ([3H]-thimidine incorporation); assay type: cell-based; settings: for IC50: compound 0.001-1 μM 30 minutes, then SPC 7 μM, 24 hours, read-out: antagonistic effect on SPC IC50; for inhibition of cellular division and proliferation induced by SPC (in words): SPC 7 μM
Procedure: Treatment of cells with sphingosylphosphorylcholine (SPC) can induce excessive cellular division and proliferation, thus causing pathological skin conditions [Desai, Biochem. Biophys. […] Accordingly, the compounds prepared in the above Examples were tested for an effect on cellular division and proliferation induced by SPC.
First, 1×10^5 (usually 1×10^4˜10^5) NIH 3T3 cells (American Type Culture Collection, Manassas, Va., USA) were dispensed and cultured on a culture plate, and then cultured in RPMI medium containing no fetal bovine serum for 24 hours to achieve serum starvation. The cells were treated with the compounds prepared in the above Examples, and FTY720, a sphingosine-1-phosphate (S1P) agonist, at concentrations of 0.001 μM, 0.01 μM, 0.1 μM and 1 μM, and were incubated for 30 minutes. Then, SPC (Biomol, Plymouth Meeting, Pa., USA) was added thereto at a concentration of 7 μM, and the cells were incubated at 37° C. for 24 hours. […] Proliferation %=(group treated with test drug−group not treated with SPC)/(group treated with SPC alone−group not treated with SPC)×100 [Equation 1]

[1] = system: TPA-induced inflammation model; test: Control of inflammatory reaction in mouse TPA-induced inflammation model (ear weight and MPO activity); assay type: in vivo; settings: ICR mice; for Inhibition (%) of inflammatory reaction (ear edema, ear weight) / Inhibition (%) (MPO inhibition): 0.3% in acetone, 20 μl on the ear at 1 hour and 6 hours after TPA; for Inhibition (%) of inflammatory reaction (ear edema, ear weight): measured at 24 hours; for inhibition of TPA-induced inflammatory reactions, ear edema and MPO activity (in words): 0.3% topical, compared with hydrocortisone; for Inhibition (%) (MPO inhibition): value in brackets, MPO activity of ear at 24 hours
Procedure: In order to examine an inhibitory effect on inflammatory reactions, the following test was carried out using tetradecanoyl phorbol acetate (hereinafter referred to as “TPA”)-induced inflammation model.
The TPA-induced inflammation model was a test method which has been widely used to test inflammatory reaction mechanisms and the effect of inhibitory substances [De Young L M et al., Agents and Actions, 1989, 26, 335-341]. When TPA which is a substance causing an inflammatory reaction is applied to the ear of a test subject, erythema and edema occur. Such inflammatory reactions are measurable through the increase in the activity of myeloperoxidase (MPO) which is essential for bacterial invasion into white blood cells.
Forty 6-week-old ICR mice were prepared, and 20 μl of a TPA solution (Sigma Aldrich Korea) obtained by dissolving TPA in acetone at a concentration of 125 μg/ml was applied to the left ear of each animal. At 1 hour after the application of TPA, 20 μl of each of acetone, the compounds of Examples dissolved in acetone at a concentration of 0.3%, and hydrocortisone (Sigma Aldrich Korea) dissolved in acetone at a concentration of 0.3% was applied to the TPA-applied site, and at 6 hours after the application of TPA, it was applied again to the same site in the same amount (20 μl). At 24 hours after the application of TPA, the mice were sacrificed by cervical dislocation, and the left ear was collected in a given width and measured for weight and MPO activity. Inhibition % of inflammatory reactions was calculated according to the following equation 3, and the results are shown in Table 4 below. Inhibition %=(group treated with TPA alone−group treated with test drug)/(group treated with TPA alone−group not treated with TPA)×100 [Equation 3]

[2] = Mus musculus, NIH3T3, serum starved

SMILES	Inhibition (%) of inflammatory reaction (ear edema, ear weight) [1]	IC50 (NIH 3T3 cells; serum starved)	other results
CC(C)(C)C(=O)Nc1nc(N2CCCCC2)sc1C(=O)N1CCOCC1 [Example 1-1]	21%	–	IC50 (NIH 3T3 cells; [2]): 932 nM
CC(C)(C)C(=O)Nc1nc(N2CCN(c3ccccc3)CC2)sc1C(=O)N1CCOCC1 [Example 1-5]	30%	189 nM	–
COc1ccccc1N1CCN(c2nc(NC(=O)C(C)(C)C)c(C(=O)N3CCOCC3)s2)CC1 [Example 1-7]	–	271 nM	–
CC(C)(C)C(=O)Nc1nc(N2CCN(c3ccc(Cl)cc3)CC2)sc1C(=O)N1CCOCC1 [Example 1-8]	–	730 nM	–
CC(C)(C)C(=O)Nc1nc(NCc2ccccc2)sc1C(=O)N1CCOCC1 [Example 1-10]	68%	68 nM	–
COc1ccc(CNc2nc(NC(=O)C(C)(C)C)c(C(=O)N3CCOCC3)s2)cc1 [Example 1-11]	49%	93.7 nM	–
CC(C)(C)C(=O)Nc1nc(NCCN2CCCCC2)sc1C(=O)N1CCOCC1 [Example 1-12, N-{5-(morpholine-4-carbonyl)-2-[2-(piperidin-1-yl)ethylamino]thiazol-4-yl}pivalamide]	86%	–	IC50 (NIH 3T3 cells; [2]): 5.81 nM; inhibition of cellular division and proliferation induced by SPC (in words) (NIH 3T3 cells): dose-dependently inhibited; inhibition of TPA-induced inflammatory reactions, ear edema and MPO activity (in words) [1]: significantly inhibited; Inhibition (%) (MPO inhibition) [1]: 80%
CC(C)(C)C(=O)Nc1nc(NCCN2CCCC2)sc1C(=O)N1CCOCC1 [Example 1-13]	–	12.7 nM	–
CC(C)(C)C(=O)Nc1nc(N2CCC(N3CCOCC3)CC2)sc1C(=O)N1CCOCC1 [Example 1-14]	71%	9.3 nM	–
CC(C)(C)C(=O)Nc1nc(N2CCC(N3CCCC3)CC2)sc1C(=O)N1CCOCC1 [Example 1-15]	–	20.7 nM	–
CC(C)(C)C(=O)Nc1nc(N2CCC(N3CCCCC3)CC2)sc1C(=O)N1CCOCC1 [Example 1-16]	–	103 nM	–
CCCCC(=O)Nc1nc(NCc2ccccc2)sc1C(=O)N1CCOCC1 [Example 1-19]	–	79 nM	–
CCCCC(=O)Nc1nc(NCCN2CCCCC2)sc1C(=O)N1CCOCC1 [Example 1-20]	62%	7.5 nM	–
CCCCC(=O)Nc1nc(N2CCC(N3CCOCC3)CC2)sc1C(=O)N1CCOCC1 [Example 1-21]	52%	57 nM	–
CCCCC(=O)Nc1nc(N2CCC(N3CCCC3)CC2)sc1C(=O)N1CCOCC1 [Example 1-22]	53%	96 nM	Inhibition (%) (MPO inhibition) [1]: 48%
COc1ccccc1N1CCN(c2nc(NC(C)=O)c(C(=O)N3CCOCC3)s2)CC1 [Example 1-23]	–	850 nM	–
COc1ccccc1N1CCN(c2nc(NC(=O)C3CCCCC3)c(C(=O)N3CCOCC3)s2)CC1 [Example 1-24]	–	910 nM	–
COc1ccccc1N1CCN(c2nc(NC(=O)C3CC3)c(C(=O)N3CCOCC3)s2)CC1 [Example 1-25]	–	67 nM	–

SMILES	Inhibition (%) of inflammatory reaction (ear edema, ear weight) [1]	IC50 (NIH 3T3 cells; serum starved)	other results
CC(C)(C)C(=O)Nc1nc(NCC2CC2)sc1C(=O)N1CCCCC1 [Example 1-27]	–	308 nM	–
CC(C)(C)C(=O)Nc1nc(NCC2CCCCC2)sc1C(=O)N1CCCCC1 [Example 1-28]	43%	716 nM	–
CC(C)(C)C(=O)Nc1nc(NCc2ccccc2)sc1C(=O)N1CCCCC1 [Example 1-29, N-[2-(benzylamino)-5-(piperidine-1-carbonyl)thiazol-4-yl]pivalamide]	87%	–	IC50 (NIH 3T3 cells; [2]): 6.12 nM; inhibition of cellular division and proliferation induced by SPC (in words) (NIH 3T3 cells): dose-dependently inhibited; inhibition of TPA-induced inflammatory reactions, ear edema and MPO activity (in words) [1]: significantly inhibited; Inhibition (%) (MPO inhibition) [1]: 83%
CC(C)(C)C(=O)Nc1nc(NCCN2CCCCC2)sc1C(=O)N1CCCCC1 [Example 1-30]	59%	878 nM	–
Cc1ccccc1N1CCN(c2nc(NC(=O)C(C)(C)C)c(C(=O)N3CCCCC3)s2)CC1 [Example 1-32]	43%	45 nM	–
CC(C)(C)C(=O)Nc1nc(N2CCN(c3ccccc3F)CC2)sc1C(=O)N1CCCCC1 [Example 1-33]	47%	10.9 nM	–
CC(C)(C)C(=O)Nc1nc(N2CCN(c3ccc(F)cc3)CC2)sc1C(=O)N1CCCCC1 [Example 1-34]	–	57 nM	–
CC(C)(C)C(=O)Nc1nc(N2CCN(c3ccccc3C#N)CC2)sc1C(=O)N1CCCCC1 [Example 1-35]	–	94 nM	–
CC(C)(C)C(=O)Nc1nc(N2CCN(c3ccccn3)CC2)sc1C(=O)N1CCCCC1 [Example 1-36]	–	540 nM	–
CC(C)(C)C(=O)Nc1nc(N2CCC(N3CCOCC3)CC2)sc1C(=O)N1CCCCC1 [Example 1-37]	44%	89 nM	Inhibition (%) (MPO inhibition) [1]: 47%
CC(C)(C)C(=O)Nc1nc(N2CCC(N3CCCCC3)CC2)sc1C(=O)N1CCCCC1 [Example 1-38]	–	176 nM	–
CCCCC(=O)Nc1nc(NCc2ccccc2)sc1C(=O)N1CCCCC1 [Example 1-41]	51%	9.8 nM	–
CCCCC(=O)Nc1nc(NCCN2CCCCC2)sc1C(=O)N1CCCCC1 [Example 1-42]	–	102 nM	–
CCCCC(=O)Nc1nc(N2CCC(N3CCCC3)CC2)sc1C(=O)N1CCCCC1 [Example 1-44]	57%	88.3 nM	–
CC(C)(C)C(=O)Nc1nc(NCc2ccccc2)sc1C(=O)N1CCCC1 [Example 1-45]	–	970 nM	–
COc1ccccc1N1CCN(c2nc(NC(=O)C(C)(C)C)c(C(=O)N3CCCC3)s2)CC1 [Example 1-49]	38%	178 nM	–
CCCCCCCCc1ccc(CCC(N)(CO)CO)cc1 [FTY720, reference compound]	–	–	inhibition of cellular division and proliferation induced by SPC (in words) (NIH 3T3 cells): did not inhibit
C[C@]12CCC(=O)C=C1CC[C@@H]1[C@@H]2[C@@H](O)C[C@@]2(C)[C@H]1CC[C@]2(O)C(=O)CO [Hydrocortisone, hydrocortisone, reference compound]	85%	–	–

— patent US7915405B2, “2,4-disubstituted-5-aminocarbonyl-1,3-thiazole derivatives for therapeutic agent of antiinflammatory disease, method thereof for preparation, therapeutic agent for antiinflammatory disease induced by SPC activity containing the same” (Korea Research Institute of Chemical Technology, priority 2008, dated 2011)
